Source: patent US20120108585A1, “BENZOXAZOLES, BENZTHIAZOLES AND RELATED ANALOGS AS SIRTUIN MODULATORS” (Sirtris Pharmaceuticals, Inc., priority 2008, published 2012)

Molecular target: T1, SIRT1 (Homo sapiens, UniProt Q96EB6)
T1 sequence (Q96EB6 1-747): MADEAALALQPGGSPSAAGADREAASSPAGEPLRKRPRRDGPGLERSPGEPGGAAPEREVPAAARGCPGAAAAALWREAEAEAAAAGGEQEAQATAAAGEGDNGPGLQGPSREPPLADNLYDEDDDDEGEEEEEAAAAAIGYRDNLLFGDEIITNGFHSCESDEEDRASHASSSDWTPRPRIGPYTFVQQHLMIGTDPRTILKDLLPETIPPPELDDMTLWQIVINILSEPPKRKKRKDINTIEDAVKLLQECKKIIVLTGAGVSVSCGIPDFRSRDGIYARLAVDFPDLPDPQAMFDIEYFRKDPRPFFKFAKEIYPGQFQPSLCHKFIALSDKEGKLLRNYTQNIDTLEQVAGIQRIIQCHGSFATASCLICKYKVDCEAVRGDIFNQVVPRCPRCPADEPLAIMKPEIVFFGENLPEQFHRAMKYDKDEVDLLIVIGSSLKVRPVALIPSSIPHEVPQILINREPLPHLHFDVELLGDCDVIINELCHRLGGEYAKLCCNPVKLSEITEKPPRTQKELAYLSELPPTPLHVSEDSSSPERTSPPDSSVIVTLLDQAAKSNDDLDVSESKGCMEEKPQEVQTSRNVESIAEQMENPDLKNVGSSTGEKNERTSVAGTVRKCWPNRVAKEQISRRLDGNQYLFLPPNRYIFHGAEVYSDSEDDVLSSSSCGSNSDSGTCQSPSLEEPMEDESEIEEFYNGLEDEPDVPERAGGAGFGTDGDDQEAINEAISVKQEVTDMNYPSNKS
Assay: mass spectrometry based assay to identify modulators of SIRT1 activity (deacetylation of p53-based acetylated peptide)
Format: biochemical
Conditions: SIRT1 activation, 10 nM SIRT1, 0.5 μM peptide substrate, 120 μM βNAD+, 25 minutes at 25° C.; for Emax: 25 min, read-out: % Fold Act. (percent maximum fold activation)
From the text: A mass spectrometry based assay was used to identify modulators of SIRT1 activity. The mass spectrometry based assay utilizes a peptide having 20 amino acid residues as follows: Ac-EE-K(biotin)-GQSTSSHSK(Ac)NleSTEG-K(5TMR)-EE-NH2 (SEQ ID NO: 1) wherein K(Ac) is an acetylated lysine residue and Nle is a norleucine. The peptide is labeled with the fluorophore 5TMR (excitation 540 nm/emission 580 nm) at the C-terminus. The sequence of the peptide substrate is based on p53 with several modifications. In addition, the methionine residue naturally present in the sequence was replaced with the norleucine because the methionine may be susceptible to oxidation during synthesis and purification.
The mass spectrometry assay is conducted as follows: 0.5 μM peptide substrate and 120 μM βNAD^+ is incubated with 10 nM SIRT1 for 25 minutes at 25° C. in a reaction buffer (50 mM Tris-acetate pH 8, 137 mM NaCl, 2.7 mM KCl, 1 mM MgCl2, 5 mM DTT, 0.05% BSA). Test compounds may be added to the reaction as described above. The SirT1 gene is cloned into a T7-promoter containing vector and transformed into BL21(DE3). After the 25 minute incubation with SIRT1, 10 μL of 10% formic acid is added to stop the reaction. Reactions are sealed and frozen for later mass spec analysis. Determination of the mass of the substrate peptide allows for precise determination of the degree of acetylation (i.e. starting material) as compared to deacetylated peptide (product).
A control for inhibition of sirtuin activity is conducted by adding 1 μL of 500 mM nicotinamide as a negative control at the start of the reaction (e.g., permits determination of maximum sirtuin inhibition). A control for activation of sirtuin activity is conducted using 10 nM of sirtuin protein, with 1 μL of DMSO in place of compound, to determine the amount of deacetylation of the substrate at a given timepoint within the linear range of the assay. This timepoint is the same as that used for test compounds and, within the linear range, the endpoint represents a change in velocity.
For the above assay, SIRT1 protein was expressed and purified as follows. The SirT1 gene was cloned into a T7-promoter containing vector and transformed into BL21(DE3). The protein was expressed by induction with 1 mM IPTG as an N-terminal His-tag fusion protein at 18° C. overnight and harvested at 30,000×g. Cells were lysed with lysozyme in lysis buffer (50 mM Tris-HCl, 2 mM Tris[2-carboxyethyl]phosphine (TCEP), 10 μM ZnCl2, 200 mM NaCl) and further treated with sonication for 10 min for complete lysis. The protein was purified over a Ni-NTA column (Amersham) and fractions containing pure protein were pooled, concentrated and run over a sizing column (Sephadex S200 26/60 global). The peak containing soluble protein was collected and run on an Ion-exchange column (MonoQ). Gradient elution (200 mM-500 mM NaCl) yielded pure protein. This protein was concentrated and dialyzed against dialysis buffer (20 mM Tris-HCl, 2 mM TCEP) overnight. The protein was aliquoted and frozen at −80° C. until further use.
Sirtuin modulating compounds that activated SIRT1 were identified using the assay described above and are shown below in Table 1. The EC1-5 values for the activating compounds are represented by A (EC1-5<1.0 uM), B (EC1-5 1-25 uM), C (EC1-5>25 uM). The percent maximum fold activation is represented by A (Fold activation>150%) or B (Fold Activation<150%).

SMILES | Emax | EC1.5
O=C(Nc1cccc2oc(-c3ccccc3)nc12)c1cscn1 [Compound 100] | < 150% | C (EC1-5>25 uM)
O=C(Nc1cccc2oc(-c3ccccc3)nc12)c1cnccn1 [Compound 101] | < 150% | C (EC1-5>25 uM)
O=C(Nc1cccc2oc(-c3cccc(C(F)(F)F)c3)nc12)c1cscn1 [Compound 102] | < 150% | C (EC1-5>25 uM)
O=C(Nc1cccc2oc(-c3cccc(C(F)(F)F)c3)nc12)c1cnccn1 [Compound 103] | < 150% | C (EC1-5>25 uM)
O=C(Nc1cccc2oc(-c3cccc(OC(F)(F)F)c3)nc12)c1cscn1 [Compound 104, N-(2-(3-(trifluoromethoxy)phenyl)benzo[d]oxazol-4-yl)thiazole-4-carboxamide] | < 150% | C (EC1-5>25 uM)
O=C(Nc1cccc2oc(-c3cccc(OC(F)(F)F)c3)nc12)c1cnccn1 [Compound 105] | < 150% | C (EC1-5>25 uM)
O=C(Nc1nccs1)c1cccc2nc(-c3cccc(C(F)(F)F)c3)oc12 [Compound 106] | < 150% | C (EC1-5>25 uM)
O=C(Nc1ccccn1)c1cccc2nc(-c3cccc(C(F)(F)F)c3)oc12 [Compound 107] | < 150% | C (EC1-5>25 uM)
O=C(Nc1cccnc1)c1cccc2nc(-c3cccc(C(F)(F)F)c3)oc12 [Compound 108] | > 150% | B (EC1-5 1-25 uM)
O=C(Nc1nccs1)c1ccnc2sc(-c3cccc(C(F)(F)F)c3)nc12 [Compound 109] | < 150% | C (EC1-5>25 uM)
O=C(Nc1ccccn1)c1ccnc2sc(-c3cccc(C(F)(F)F)c3)nc12 [Compound 110] | < 150% | C (EC1-5>25 uM)
O=C(Nc1nccs1)c1cccc2sc(-c3cccc(C(F)(F)F)c3)nc12 [Compound 111] | < 150% | C (EC1-5>25 uM)
O=C(Nc1ccccn1)c1cccc2sc(-c3cccc(C(F)(F)F)c3)nc12 [Compound 112] | < 150% | C (EC1-5>25 uM)
O=C(Nc1cccnc1)c1cccc2sc(-c3cccc(C(F)(F)F)c3)nc12 [Compound 113] | < 150% | C (EC1-5>25 uM)
O=C(Nc1nccs1)c1cccc2sc(-c3cccc(OC(F)(F)F)c3)nc12 [Compound 114] | < 150% | C (EC1-5>25 uM)
O=C(Nc1ccccn1)c1cccc2sc(-c3cccc(OC(F)(F)F)c3)nc12 [Compound 115] | < 150% | C (EC1-5>25 uM)
O=C(Nc1cccnc1)c1cccc2sc(-c3cccc(OC(F)(F)F)c3)nc12 [Compound 116] | < 150% | C (EC1-5>25 uM)
O=C(Nc1nccs1)c1cccc2nc(-c3ccccc3OC(F)(F)F)oc12 [Compound 117] | < 150% | B (EC1-5 1-25 uM)

Further lines, results first:

Emax | EC1.5 | SMILES
> 150% | B (EC1-5 1-25 uM) | O=C(Nc1ccccn1)c1cccc2nc(-c3ccccc3OC(F)(F)F)oc12 [Compound 118]
> 150% | B (EC1-5 1-25 uM) | O=C(Nc1nc(CN2CCOCC2)cs1)c1cccc2nc(-c3ccccc3OC(F)(F)F)oc12 [Compound 119]
> 150% | A (EC1-5<1.0 uM) | O=C(Nc1cccc(CN2CCOCC2)n1)c1cccc2nc(-c3ccccc3OC(F)(F)F)oc12 [Compound 120]
> 150% | B (EC1-5 1-25 uM) | O=C(Nc1nccs1)c1cccc2nc(-c3ccccc3C(F)(F)F)oc12 [Compound 121]
> 150% | B (EC1-5 1-25 uM) | O=C(Nc1ccccn1)c1cccc2nc(-c3ccccc3C(F)(F)F)oc12 [Compound 122]
> 150% | B (EC1-5 1-25 uM) | O=C(Nc1nc(CN2CCOCC2)cs1)c1cccc2nc(-c3ccccc3C(F)(F)F)oc12 [Compound 123]
> 150% | A (EC1-5<1.0 uM) | O=C(Nc1cccc(CN2CCOCC2)n1)c1cccc2nc(-c3ccccc3C(F)(F)F)oc12 [Compound 124]
< 150% | C (EC1-5>25 uM) | O=C(Nc1nccs1)c1cccc2sc(-c3cccc(N4CCOCC4)c3)nc12 [Compound 125]
< 150% | C (EC1-5>25 uM) | O=C(Nc1ccccn1)c1cccc2sc(-c3cccc(N4CCOCC4)c3)nc12 [Compound 126]
< 150% | C (EC1-5>25 uM) | O=C(Nc1cccnc1)c1cccc2sc(-c3cccc(N4CCOCC4)c3)nc12 [Compound 127]
< 150% | C (EC1-5>25 uM) | O=C(Nc1nccs1)c1cccc2sc(-c3cccnc3)nc12 [Compound 128]
< 150% | C (EC1-5>25 uM) | O=C(Nc1ccccn1)c1cccc2sc(-c3cccnc3)nc12 [Compound 129]
< 150% | B (EC1-5 1-25 uM) | O=C(Nc1nccs1)c1cccc2nc(-c3ccc(F)cc3C(F)(F)F)oc12 [Compound 130]
> 150% | B (EC1-5 1-25 uM) | O=C(Nc1ccccn1)c1cccc2nc(-c3ccc(F)cc3C(F)(F)F)oc12 [Compound 131]
> 150% | B (EC1-5 1-25 uM) | O=C(Nc1nc(CN2CCOCC2)cs1)c1cccc2nc(-c3ccc(F)cc3C(F)(F)F)oc12 [Compound 132]
> 150% | B (EC1-5 1-25 uM) | O=C(Nc1cccc(CN2CCOCC2)n1)c1cccc2nc(-c3ccc(F)cc3C(F)(F)F)oc12 [Compound 133]
< 150% | B (EC1-5 1-25 uM) | O=C(Nc1ccccn1)c1cccc2nc(-c3cc(F)ccc3C(F)(F)F)oc12 [Compound 134]
> 150% | B (EC1-5 1-25 uM) | O=C(Nc1nc(CN2CCOCC2)cs1)c1cccc2nc(-c3cc(F)ccc3C(F)(F)F)oc12 [Compound 135]
> 150% | B (EC1-5 1-25 uM) | O=C(Nc1cccc(CN2CCOCC2)n1)c1cccc2nc(-c3cc(F)ccc3C(F)(F)F)oc12 [Compound 136]
> 150% | B (EC1-5 1-25 uM) | O=C(Nc1nccs1)c1cccc2oc(-c3ccccc3C(F)(F)F)nc12 [Compound 137, N-(thiazol-2-yl)-2-(2-(trifluoromethyl)phenyl)benzo[d]oxazole-4-carboxamide]
> 150% | B (EC1-5 1-25 uM) | O=C(Nc1ccccn1)c1cccc2oc(-c3ccccc3C(F)(F)F)nc12 [Compound 138]
> 150% | A (EC1-5<1.0 uM) | O=C(Nc1nc(CN2CCOCC2)cs1)c1cccc2oc(-c3ccccc3C(F)(F)F)nc12 [Compound 139]
